From patent EP0477700A1, “6'-C-alkyl- or alkynyl-neplanocin A, and its preparation process and use” (priority 1990, dated 1992)
Converted amounts (≈) assume the structure as drawn. Read-outs that look alike come from different tables or passages of the source.

Key:
adenosine deaminase = biological target: T1, adenosine deaminase (Bos taurus, UniProt P56658); experiment: Adenosine deaminase resistance (remaining compound measured by HPLC); details: for Percent remainder 0 minute / Percent remainder 30 minutes: 5 mM compound in 0.05 M Tris-HCl buffer (pH 7.2), adenosine deaminase (calf intestine), 25°C
T1 sequence (P56658 1-363): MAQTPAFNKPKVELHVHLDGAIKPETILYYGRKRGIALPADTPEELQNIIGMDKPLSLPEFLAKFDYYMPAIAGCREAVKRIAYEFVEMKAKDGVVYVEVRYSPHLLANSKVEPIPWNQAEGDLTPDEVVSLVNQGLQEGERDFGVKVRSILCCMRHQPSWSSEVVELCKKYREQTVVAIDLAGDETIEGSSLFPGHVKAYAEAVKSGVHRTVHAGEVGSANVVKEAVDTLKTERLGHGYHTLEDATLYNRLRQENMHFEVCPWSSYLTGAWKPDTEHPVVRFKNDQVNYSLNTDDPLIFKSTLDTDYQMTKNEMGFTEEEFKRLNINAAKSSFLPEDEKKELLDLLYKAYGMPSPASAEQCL

[1] = test system: Vesicular Stomatitis Virus (VSV); experiment: microbe, parasite or virus in culture; format: cell-based; details: 36 h
Vero cells = experiment: Cytotoxicity in Vero cells (minimum cytotoxicity concentration)
parainfulenza virus = experiment: Antiviral activity against parainfluenza virus in Vero cells (minimum virus growth inhibitory concentration); format: cell-based

| SMILES | Percent remainder 0 minute (adenosine deaminase) [%] | Percent remainder 30 minutes (adenosine deaminase) [%] | MIC [1] [µg/mL] | MCC (Vero cells) | MIC (parainfulenza virus; minimum virus growth inhibitory concentration, parainfulenza virus, Vero cells, read-out: MIC) [µg/mL] | MIC (parainfulenza virus) [µg/mL] | inactivated (adenosine deaminase; summary of the adenosine deaminase resistance test (conditions of Table 3)) [%] |
| --- | --- | --- | --- | --- | --- | --- | --- |
| CCC(O)C1=C[C@@H](n2cnc3c(N)ncnc32)[C@H](O)[C@@H]1O (stereo partly shown) [6'-C-Ethylneplanocin A, 6'-C-ethylneplanocin A] | 100 | 94 | – | – | – | – | – |
| C#CC(O)C1=C[C@@H](n2cnc3c(N)ncnc32)[C@H](O)[C@@H]1O (stereo partly shown) [6'-C-Ethynylneplanocin A, 6'-C-ethynylneplanocin A] | 100 | 96 | 0.1 (≈ 0.348 µM) | – | – | – | – |
| CC(O)C1=C[C@@H](n2cnc3c(N)ncnc32)[C@H](O)[C@@H]1O (stereo partly shown) [6'-C-Methylneplanocin A, 6'-C-methylneplanocin A] | 100 | 92 | 0.1 (≈ 0.361 µM) | ≧400 µg/mℓ | 0.1 (≈ 0.361 µM) | – | – |
| Nc1ncnc2c1ncn2[C@@H]1C=C(CO)[C@@H](O)[C@H]1O [Neplanocin A] | 100 | 0 | 3.9 (≈ 14.8 µM) | ≧40 µg/mℓ | – | 0.1 (≈ 0.38 µM) | 100 |
